Source: US12723063B2, “GIPR-agonist compounds” (Eli Lilly and Company, priority 2019, dated 2026)
*1 amine or outer side, *2 acyl side, *3 side chain or, on linkers, in order; H or OH if unused. Where a SMILES comes first, the peptide text is derived from it. Side-chain parts run from the residue outwards. [ ]: non-standard residue; d: D form. The star is where a group is joined. C20 diacid = O=C(O)CCCCCCCCCCCCCCCCCCC(=O)*; γGlu = O=C(O)[C@H](CCC(=O)[*:2])N[*:1]; αMeY = C[C@](N)(Cc1ccc(O)cc1)C(=O)O; 4Pal = N[C@@H](Cc1ccncc1)C(=O)O; αMeL = CC(C)C[C@](C)(N)C(=O)O; Iva = CC[C@](C)(N)C(=O)O; Orn = NCCC[C@H](N)C(=O)O; AEEA = NCCOCCOCC(=O)O; Aib = CC(C)(N)C(=O)O

Columns and labels:
[1] = target: T1, human GIPR (Homo sapiens, UniProt P48546); test: [125I]-GIP binding, SPA with WGA beads, 0.1% bacitracin; conditions: geometric mean, read-out: hGIPR Ki
T1 construct: expressed in transfected cells; crude membranes
T1 sequence (P48546 22-466): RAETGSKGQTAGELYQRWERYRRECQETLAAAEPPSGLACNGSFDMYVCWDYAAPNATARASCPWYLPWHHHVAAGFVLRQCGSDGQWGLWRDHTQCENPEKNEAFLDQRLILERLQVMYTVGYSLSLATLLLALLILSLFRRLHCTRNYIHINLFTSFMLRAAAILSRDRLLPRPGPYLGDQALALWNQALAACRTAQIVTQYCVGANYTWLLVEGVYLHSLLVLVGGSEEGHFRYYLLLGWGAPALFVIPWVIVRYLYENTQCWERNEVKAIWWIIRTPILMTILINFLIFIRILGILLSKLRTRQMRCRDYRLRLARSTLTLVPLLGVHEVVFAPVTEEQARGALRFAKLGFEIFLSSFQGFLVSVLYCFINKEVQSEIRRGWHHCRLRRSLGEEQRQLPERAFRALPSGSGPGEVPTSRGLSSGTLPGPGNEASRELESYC
Summary of the method: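 Ki values are geometric means (SEM, n independent days), derived from four-parameter nonlinear regression of IC50. Membranes came from hGIPR-expressing CHO cells.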

[2] = target: T2, human GcgR (Homo sapiens, UniProt P47871); test: [125I]-Glucagon binding, SPA with WGA beads, 0.1% bacitracin; conditions: geometric mean, read-out: hGcgR Ki
T2 construct: expressed in transfected cells; crude membranes
Summary of the method: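 SPA competition binding with WGA beads on crude membranes from HEK293 cells stably expressing hGcgR. Buffer: 25 mM HEPES pH 7.4, 2.5 mM CaCl2, 1 mM MgCl2, 0.1% bacitracin, 0.003% Tween-20; 10-point 3-fold dilutions, NSB with 1 μM Gcg.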

[3] = target: T3, human GLP-1R (Homo sapiens, UniProt P43220); test: [125I]-GLP-1 binding, SPA with WGA beads, 0.1% bacitracin; conditions: geometric mean, read-out: hGLP1R Ki
T3 construct: expressed in transfected cells; crude membranes
Summary of the method: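 Binding buffer was 25 mM HEPES pH 7.4 with 2.5 mM CaCl2, 1 mM MgCl2, 0.1% (w/v) bacitracin, 0.003% Tween-20 and EDTA-free protease inhibitors. Four-parameter regression gave IC50, converted to Ki (geometric mean, SEM, n independent days).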

T3 sequence (P43220 24-463): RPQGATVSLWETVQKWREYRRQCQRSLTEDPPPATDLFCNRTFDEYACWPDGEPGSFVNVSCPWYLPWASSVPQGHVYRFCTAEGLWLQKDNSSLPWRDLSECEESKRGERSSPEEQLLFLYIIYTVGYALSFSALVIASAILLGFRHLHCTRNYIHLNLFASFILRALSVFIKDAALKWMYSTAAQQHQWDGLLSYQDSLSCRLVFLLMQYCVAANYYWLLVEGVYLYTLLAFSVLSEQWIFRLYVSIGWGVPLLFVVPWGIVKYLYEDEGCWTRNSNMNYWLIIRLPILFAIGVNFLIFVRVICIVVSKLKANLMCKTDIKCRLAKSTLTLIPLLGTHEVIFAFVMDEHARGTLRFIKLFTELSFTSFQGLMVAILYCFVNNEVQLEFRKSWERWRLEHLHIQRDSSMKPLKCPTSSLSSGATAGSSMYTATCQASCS
T2 sequence (P47871 26-477): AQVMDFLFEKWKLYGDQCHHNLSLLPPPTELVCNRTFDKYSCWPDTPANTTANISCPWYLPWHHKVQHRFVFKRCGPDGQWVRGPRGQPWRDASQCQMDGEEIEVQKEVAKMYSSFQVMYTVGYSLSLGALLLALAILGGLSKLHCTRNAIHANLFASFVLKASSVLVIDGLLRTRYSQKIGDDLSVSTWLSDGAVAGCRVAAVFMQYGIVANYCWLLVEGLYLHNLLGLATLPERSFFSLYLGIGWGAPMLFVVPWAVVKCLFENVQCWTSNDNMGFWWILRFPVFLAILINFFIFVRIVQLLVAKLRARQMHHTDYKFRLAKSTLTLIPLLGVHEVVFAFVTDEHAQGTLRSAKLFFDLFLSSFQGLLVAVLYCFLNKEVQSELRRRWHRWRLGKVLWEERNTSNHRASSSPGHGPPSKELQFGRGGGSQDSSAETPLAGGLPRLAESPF

Row | SMILES | Ki [1] | Ki [2] | Ki [3]
1 | CC[C@H](C)[C@H](NC(=O)[C@H](CCCCN)NC(=O)[C@H](CC(=O)O)NC(=O)[C@H](CC(C)C)NC(=O)[C@](C)(CC(C)C)NC(=O)[C@@H](NC(=O)[C@H](CO)NC(=O)[C@H](Cc1ccc(O)cc1)NC(=O)[C@H](CC(=O)O)NC(=O)[C@H](CO)NC(=O)[C@@H](NC(=O)[C@H](Cc1ccccc1)NC(=O)[C@@H](NC(=O)CNC(=O)[C@H](CCC(=O)O)NC(=O)C(C)(C)NC(=O)[C@@H](N)Cc1ccc(O)cc1)[C@@H](C)O)[C@@H](C)CC)[C@@H](C)CC)C(=O)N[C@@H](Cc1c[nH]cn1)C(=O)N[C@@H](CCC(N)=O)C(=O)NC(C)(C)C(=O)N[C@@H](CC(=O)O)C(=O)N[C@@H](Cc1ccccc1)C(=O)N[C@H](C(=O)N[C@@H](CCC(=O)O)C(=O)N[C@@H](Cc1ccc(O)cc1)C(=O)N[C@@H](CCCCNC(=O)COCCOCCNC(=O)COCCOCCNC(=O)CC[C@H](NC(=O)CCCCCCCCCCCCCCCCCCC(=O)O)C(=O)O)C(=O)N[C@@H](CC(C)C)C(=O)N[C@@H](CCC(=O)O)C(=O)NCC(=O)NCC(=O)N1CCC[C@H]1C(=O)N[C@@H](CO)C(=O)N[C@@H](CO)C(=O)NCC(=O)N[C@@H](C)C(=O)N1CCC[C@H]1C(=O)N1CCC[C@H]1C(=O)N1CCC[C@H]1C(=O)N[C@@H](CO)C(N)=O)C(C)C [Example 5] | 0.0771 nM | 619 nM | > 913 nM
2 | CC[C@H](C)[C@H](NC(=O)[C@H](Cc1ccccc1)NC(=O)[C@@H](NC(=O)CNC(=O)[C@H](CCC(=O)O)NC(=O)C(C)(C)NC(=O)[C@@H](N)Cc1ccc(O)cc1)[C@@H](C)O)C(=O)N[C@@H](CO)C(=O)N[C@@H](CC(=O)O)C(=O)N[C@@H](Cc1ccc(O)cc1)C(=O)N[C@@H](CO)C(=O)N[C@H](C(=O)N[C@@](C)(CC(C)C)C(=O)N[C@@H](CC(C)C)C(=O)N[C@@H](CC(=O)O)C(=O)N[C@@H](CCCCN)C(=O)N[C@@H](CCCCNC(=O)COCCOCCNC(=O)COCCOCCNC(=O)CC[C@H](NC(=O)CCCCCCCCCCCCCCCCCCC(=O)O)C(=O)O)C(=O)N[C@@H](Cc1c[nH]cn1)C(=O)N[C@@H](CCC(N)=O)C(=O)NC(C)(C)C(=O)N[C@@H](CC(=O)O)C(=O)N[C@@H](Cc1ccccc1)C(=O)N[C@H](C(=O)N[C@@H](CCC(=O)O)C(=O)N[C@@](C)(Cc1ccc(O)cc1)C(=O)N[C@@H](CC(C)C)C(=O)N[C@@H](CC(C)C)C(=O)N[C@@H](CCC(=O)O)C(=O)N[C@@H](C)C(=O)NCC(=O)N1CCC[C@H]1C(=O)N[C@@H](CO)C(=O)N[C@@H](CO)C(=O)NCC(=O)N[C@@H](C)C(=O)N1CCC[C@H]1C(=O)N1CCC[C@H]1C(=O)N1CCC[C@H]1C(=O)N[C@@H](CO)C(N)=O)C(C)C)[C@@H](C)CC [Example 90] (H-Y[Aib]EGTFISDYSI[αMeL]LDKK([AEEA-AEEA-γGlu-C20 diacid])HQ[Aib]DFVE[αMeY]LLEAGPSSGAPPPS-NH2) | 0.129 nM | 112 nM | 102 nM
3 | CC[C@H](C)[C@H](NC(=O)[C@H](CO)NC(=O)[C@H](Cc1ccc(O)cc1)NC(=O)[C@H](CC(=O)O)NC(=O)[C@H](CO)NC(=O)[C@@H](NC(=O)[C@](C)(CC)NC(=O)[C@@H](NC(=O)CNC(=O)[C@H](CCC(=O)O)NC(=O)C(C)(C)NC(=O)[C@@H](N)Cc1ccc(O)cc1)[C@@H](C)O)[C@@H](C)CC)C(=O)N[C@@](C)(CC(C)C)C(=O)N[C@@H](CC(C)C)C(=O)N[C@@H](CC(=O)O)C(=O)N[C@@H](CCCCN)C(=O)N[C@@H](CCCCNC(=O)COCCOCCNC(=O)COCCOCCNC(=O)CC[C@H](NC(=O)CCCCCCCCCCCCCCCCCCC(=O)O)C(=O)O)C(=O)N[C@@H](Cc1c[nH]cn1)C(=O)N[C@@H](CCC(N)=O)C(=O)NC(C)(C)C(=O)N[C@@H](CC(=O)O)C(=O)N[C@@H](Cc1ccccc1)C(=O)N[C@H](C(=O)N[C@@H](CCC(=O)O)C(=O)N[C@@H](Cc1ccncc1)C(=O)N[C@@H](CC(C)C)C(=O)N[C@@H](CC(C)C)C(=O)N[C@@H](CCC(=O)O)C(=O)NCC(=O)NCC(=O)N1CCC[C@H]1C(=O)N[C@@H](CO)C(=O)N[C@@H](CO)C(=O)NCC(=O)N[C@@H](C)C(=O)N1CCC[C@H]1C(=O)N1CCC[C@H]1C(=O)N1CCC[C@H]1C(=O)N[C@@H](CO)C(N)=O)C(C)C [Example 74] (H-Y[Aib]EGT[Iva]ISDYSI[αMeL]LDKK([AEEA-AEEA-γGlu-C20 diacid])HQ[Aib]DFVE[4Pal]LLEGGPSSGAPPPS-NH2) | 0.0287 nM | 511 nM | 395 nM
4 | CC[C@H](C)[C@H](NC(=O)[C@H](CO)NC(=O)[C@H](Cc1ccc(O)cc1)NC(=O)[C@H](CC(=O)O)NC(=O)[C@H](CO)NC(=O)[C@@H](NC(=O)[C@](C)(CC)NC(=O)[C@@H](NC(=O)CNC(=O)[C@H](CCC(=O)O)NC(=O)C(C)(C)NC(=O)[C@@H](N)Cc1ccc(O)cc1)[C@@H](C)O)[C@@H](C)CC)C(=O)N[C@@](C)(CC(C)C)C(=O)N[C@@H](CC(C)C)C(=O)N[C@@H](CC(=O)O)C(=O)N[C@@H](CCCN)C(=O)N[C@@H](CCCCNC(=O)COCCOCCNC(=O)COCCOCCNC(=O)CC[C@H](NC(=O)CCCCCCCCCCCCCCCCCCC(=O)O)C(=O)O)C(=O)N[C@@H](Cc1c[nH]cn1)C(=O)N[C@@H](CCC(N)=O)C(=O)NC(C)(C)C(=O)N[C@@H](CC(=O)O)C(=O)N[C@@H](Cc1ccccc1)C(=O)N[C@H](C(=O)N[C@@H](CCC(=O)O)C(=O)N[C@@H](Cc1ccncc1)C(=O)N[C@@H](CC(C)C)C(=O)N[C@@H](CC(C)C)C(=O)N[C@@H](CCC(=O)O)C(=O)N[C@H](C(=O)NCC(=O)N1CCC[C@H]1C(=O)N[C@@H](CO)C(=O)N[C@@H](CO)C(=O)NCC(=O)N[C@@H](C)C(=O)N1CCC[C@H]1C(=O)N1CCC[C@H]1C(=O)N1CCC[C@H]1C(=O)N[C@@H](CO)C(N)=O)[C@@H](C)O)C(C)C [Example 77] (H-Y[Aib]EGT[Iva]ISDYSI[αMeL]LD[Orn]K([AEEA-AEEA-γGlu-C20 diacid])HQ[Aib]DFVE[4Pal]LLETGPSSGAPPPS-NH2) | 0.0841 nM | > 958 nM | > 905 nM
5 | CC[C@H](C)[C@H](NC(=O)[C@H](CO)NC(=O)[C@H](Cc1ccc(O)cc1)NC(=O)[C@H](CC(=O)O)NC(=O)[C@H](CO)NC(=O)[C@@H](NC(=O)[C@H](Cc1ccccc1)NC(=O)[C@@H](NC(=O)CNC(=O)[C@H](CCC(=O)O)NC(=O)C(C)(C)NC(=O)[C@@H](N)Cc1ccc(O)cc1)[C@@H](C)O)[C@@H](C)CC)C(=O)N[C@@H](CC(C)C)C(=O)N[C@@H](CC(C)C)C(=O)N[C@@H](CC(=O)O)C(=O)N[C@@H](CCCCN)C(=O)N[C@@H](CCCCNC(=O)COCCOCCNC(=O)COCCOCCNC(=O)CC[C@H](NC(=O)CCCCCCCCCCCCCCCCCCC(=O)O)C(=O)O)C(=O)N[C@@H](C)C(=O)N[C@@H](CCC(N)=O)C(=O)NC(C)(C)C(=O)N[C@@H](CC(=O)O)C(=O)N[C@@H](Cc1ccccc1)C(=O)N[C@H](C(=O)N[C@@H](CC(N)=O)C(=O)N[C@@H](Cc1c[nH]c2ccccc12)C(=O)N[C@@H](CC(C)C)C(=O)N[C@@H](CC(C)C)C(=O)N[C@@H](C)C(=O)N[C@@H](CCC(N)=O)C(=O)NCC(=O)N1CCC[C@H]1C(=O)N[C@@H](CO)C(=O)N[C@@H](CO)C(=O)NCC(=O)N[C@@H](C)C(=O)N1CCC[C@H]1C(=O)N1CCC[C@H]1C(=O)N1CCC[C@H]1C(=O)N[C@@H](CO)C(N)=O)C(C)C [Example 8] (H-Y[Aib]EGTFISDYSILLDKK([AEEA-AEEA-γGlu-C20 diacid])AQ[Aib]DFVNWLLAQGPSSGAPPPS-NH2) | 0.027 nM | 101 nM | 38.1 nM
